Among the data in PubChem BioAssay (NCI) are TGI and GI50 values, retold here.

Test systems include A498 renal; HCT-116 colon; HOP-92 NSCLC; HS 578T breast; KM12 colon; MDA-MB-231 breast; NCI-H460 lung; RPMI-8226 leukemia; SF-539 CNS; SK-OV-3 ovarian; SN12C renal; SNB-75 CNS; SR leukemia.
Experiment in all cases: inhibition of tumour cell growth, NCI panel, 48 h

Several values for one entry are separate records, joined by “and”; a condition that tells them apart may be missing. Equal values may be shown once.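 Following 48 hours of exposure in 96-well plates, responses at five concentrations were used to interpolate endpoints linearly. Here, GI50 denotes the concentration required for 50% inhibition of growth. TGI is the concentration that stops growth completely.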

As for `Cc1ccc(N=Nc2ccc(O)c(CN(C)C)c2)cc1`, the TGI came out at 40.2 µM in the experiment on A498 renal; 51.8 µM in the experiment on HCT-116 colon; 67.7 µM in the experiment on HOP-92 NSCLC; 41.9 µM in the experiment on HS 578T breast; 37.9 µM in the experiment with KM12 colon; 56.3 µM in the experiment with MDA-MB-231 breast. For the same compound, the TGI with NCI-H460 lung is 33.8 µM; in the experiment with RPMI-8226 leukemia, 48 µM; in the experiment on SF-539 CNS, 33.3 µM; with SK-OV-3 ovarian it was 85.3 µM; with SN12C renal it was greater than 100 µM; with SNB-75 CNS, 75.1 µM. The same compound registered a TGI with SR leukemia greater than 100 µM.

For `CC(=O)NC(CCC(=O)C=[N+]=N)C(=O)O` (configuration not stated), the TGI in the experiment on A498 renal, in the experiment on HCT-116 colon, in the experiment with HOP-92 NSCLC, with HS 578T breast, with KM12 colon and in the experiment on MDA-MB-231 breast was greater than 100 µM throughout. Moreover, the TGI in the experiment on NCI-H460 lung, in the experiment with RPMI-8226 leukemia, with SF-539 CNS, with SK-OV-3 ovarian, with SN12C renal and in the experiment with SNB-75 CNS was greater than 100 µM each time. In the experiment on SR leukemia, this compound yielded a TGI greater than 100 µM.

As to `CCOC(=O)CSc1nnc2cc(CN3CCCC3)c(-c3ccc(Cl)cc3)nn12`, the TGI in the experiment with A498 renal, in the experiment on HCT-116 colon, in the experiment with HOP-92 NSCLC, in the experiment with HS 578T breast, with KM12 colon and in the experiment on MDA-MB-231 breast was greater than 100 µM throughout. Also, the TGI with NCI-H460 lung, with RPMI-8226 leukemia, in the experiment with SF-539 CNS, in the experiment with SK-OV-3 ovarian, with SN12C renal and with SNB-75 CNS was greater than 100 µM in each case. This compound also registered a TGI with SR leukemia greater than 100 µM.

For `CC(=O)Nc1ccc(-c2nc3ccccc3s2)cc1I`, the TGI is 36.3 µM in the experiment with A498 renal; 81 µM in the experiment with HCT-116 colon; greater than 88.9 µM in the experiment with HOP-92 NSCLC; greater than 100 µM in the experiment on HS 578T breast; greater than 100 µM in the experiment on KM12 colon; greater than 65.1 µM with MDA-MB-231 breast. For the same compound, the TGI in the experiment with NCI-H460 lung was greater than 100 µM; in the experiment with RPMI-8226 leukemia, greater than 100 µM; in the experiment on SF-539 CNS it was 55.6 µM; in the experiment on SK-OV-3 ovarian, 38.2 µM; with SN12C renal it was greater than 100 µM; in the experiment with SNB-75 CNS, 67.4 µM. Moreover, in the experiment with SR leukemia, the TGI is greater than 100 µM.

Consider `CCC(=O)c1ccc2[nH]c3c(C)c4c(=O)cc(C)[nH]c4c(C)c3c2c1`, for which the TGI in the experiment on A498 renal was greater than 100 µM; in the experiment on HCT-116 colon, greater than 100 µM; with HOP-92 NSCLC, 82.3 µM; in the experiment on HS 578T breast, greater than 100 µM; in the experiment with KM12 colon it was greater than 100 µM; in the experiment with MDA-MB-231 breast, greater than 100 µM. For the same compound, the TGI with NCI-H460 lung, in the experiment on SF-539 CNS, in the experiment with SNB-75 CNS and in the experiment with SR leukemia was greater than 100 µM each time.

Take `CCOC(=O)c1cnc2n(c1=N)[C@H]1CCCC[C@@H]1N2`: the TGI with A498 renal, with HCT-116 colon, in the experiment with HOP-92 NSCLC, in the experiment on HS 578T breast, with KM12 colon and in the experiment on MDA-MB-231 breast was greater than 100 µM in each case. Further, the TGI in the experiment on NCI-H460 lung, in the experiment with RPMI-8226 leukemia, in the experiment on SF-539 CNS, with SK-OV-3 ovarian, with SN12C renal and in the experiment with SNB-75 CNS was greater than 100 µM in each case. The compound also gave a TGI in the experiment with SR leukemia greater than 100 µM.

As to `O=C(c1ccccc1)c1ccc(-n2c3ccccc3c3ccc4c(c32)C(=O)C=CC4=O)cc1`, the TGI in the experiment with A498 renal is 25.3 µM; in the experiment on HCT-116 colon, 16.3 µM; with HOP-92 NSCLC it was 18.6 µM; in the experiment on HS 578T breast it was greater than 55.5 µM; with KM12 colon, 37.5 µM; in the experiment with MDA-MB-231 breast, 26.2 µM. In addition, the TGI in the experiment with NCI-H460 lung is 36.2 µM; in the experiment with RPMI-8226 leukemia, greater than 100 µM; in the experiment on SF-539 CNS it was 34.2 µM; in the experiment on SK-OV-3 ovarian it was 42.9 µM; in the experiment on SN12C renal, 28.3 µM; in the experiment on SNB-75 CNS it was greater than 58.4 µM. The compound also came in with a TGI in the experiment with SR leukemia greater than 34 µM.

On to `CC1CCC2(C(=O)O)CCC3(C)C(=CCC4C5(C)CCC(O)C(C)(C)C5CCC43C)C2C1C` (configuration not stated), for which the GI50 in the experiment on A498 renal is 7.07 µM and 22.6 µM; with SNB-75 CNS, 1.52 µM and 13.3 µM. For the same compound, the TGI with A498 renal was 23.3 µM and 45.3 µM; in the experiment on HCT-116 colon, 17.9 µM and > 100 µM; in the experiment with HOP-92 NSCLC, 21.1 µM and 42.6 µM; in the experiment on HS 578T breast it was 25.2 µM; with KM12 colon it was 21 µM and 20.9 µM; with MDA-MB-231 breast it was 26.2 µM. Moreover, the TGI was 24.8 µM in the experiment on NCI-H460 lung; 24.3 µM and 31.5 µM in the experiment on RPMI-8226 leukemia; 22.5 µM and 35.6 µM in the experiment on SF-539 CNS; 27 µM and 35.1 µM in the experiment on SK-OV-3 ovarian; 18.9 µM and 36.1 µM in the experiment with SN12C renal; 16.5 µM and 30.4 µM in the experiment with SNB-75 CNS. The compound further displayed a TGI with SR leukemia of 59.8 µM.

For the compound `CC(=O)Nc1cc2c3c(c1)CCCN3CCC2`, the TGI with A498 renal, with HCT-116 colon, in the experiment with HOP-92 NSCLC, in the experiment on HS 578T breast, in the experiment with KM12 colon and in the experiment with MDA-MB-231 breast was greater than 100 µM in each case. Besides, the TGI in the experiment with NCI-H460 lung, in the experiment on RPMI-8226 leukemia, with SF-539 CNS, with SK-OV-3 ovarian, with SNB-75 CNS and in the experiment with SR leukemia was greater than 100 µM throughout.

Consider `O=S(=O)(O)c1ccc(N=Nc2c(O)ccc3cc(Br)ccc23)cc1`, for which the TGI in the experiment on A498 renal, in the experiment on HCT-116 colon, in the experiment on HOP-92 NSCLC, in the experiment with HS 578T breast, in the experiment with KM12 colon and in the experiment with MDA-MB-231 breast was greater than 100 µM throughout. Besides, the TGI in the experiment with RPMI-8226 leukemia, in the experiment on SK-OV-3 ovarian, in the experiment on SN12C renal, in the experiment on SNB-75 CNS and with SR leukemia was greater than 100 µM in each case.

With `CCN(CC)CCNC(=O)c1cc2cc(NC(=O)c3cc4cc(NC(=O)c5cc6cc(N)ccc6[nH]5)ccc4[nH]3)ccc2[nH]1`, the TGI in the experiment on A498 renal, with HOP-92 NSCLC, in the experiment with HS 578T breast, in the experiment with KM12 colon, in the experiment on MDA-MB-231 breast and in the experiment on NCI-H460 lung was greater than 100 µM in each case. Besides, the TGI in the experiment with RPMI-8226 leukemia, with SK-OV-3 ovarian, in the experiment on SN12C renal, in the experiment on SNB-75 CNS and in the experiment on SR leukemia was greater than 100 µM in each case.
